Source: patent publication US20070117743A1, “New antitumoral compounds” (priority 2003, published 2007)
Where a SMILES comes first, the peptide text is derived from it. Bridges are numbered along the chain shown (N, C = ends). [ ]: non-standard residue; d: D form. The star is where a group is joined. d(aIle) = CC[C@H](C)[C@@H](N)C(=O)O; d(aThr) = C[C@@H](O)[C@@H](N)C(=O)O; Hexanoyl(5-Me) = CC(C)CCCC(=O)*; Orn = NCCC[C@H](N)C(=O)O; Dhb = C/C=C(\N)C(=O)O

Tests used:
Assay type in all cases: cell-based, human
K-562 = assay: SRB colorimetric assay of cell growth and viability, K-562; details: 48 hours exposure; for CC50: read-out: LC50 K-562
DU-145 = assay: SRB colorimetric assay of cell growth and viability, DU-145; details: 48 hours exposure
HeLa-APL = assay: SRB colorimetric assay of cell growth and viability, HeLa-APL; details: 48 hours exposure; for CC50: read-out: LC50 HELA-APL
IGROV-ET = assay: SRB colorimetric assay of cell growth and viability, IGROV-ET; details: 48 hours exposure; for CC50: read-out: LC50 IGROV-ET
LoVo = assay: SRB colorimetric assay of cell growth and viability, LoVo; details: 48 hours exposure; for CC50: read-out: LC50 LOVO
PANC-1 = assay: SRB colorimetric assay of cell growth and viability, PANC-1; details: 48 hours exposure; for CC50: read-out: LC50 PANC-1
LNCaP = assay: SRB colorimetric assay of cell growth and viability, LNCaP; details: 48 hours exposure; for GI50: read-out: GI50 LN-caP; for CC50: read-out: LC50 LN-caP
HT-29 = assay: SRB colorimetric assay of cell growth and viability, HT-29; details: 48 hours exposure; for GI50: read-out: GI50 HT-29; for CC50: read-out: LC50 HT-29
SK-MEL-28 = assay: SRB colorimetric assay of cell growth and viability, SK-MEL-28; details: 48 hours exposure; for CC50: read-out: LC50 MEL-28
A-549 = assay: SRB colorimetric assay of cell growth and viability, A-549; details: 48 hours exposure; for GI50: read-out: GI50 A-549; for CC50: read-out: LC50 A-549
HeLa = assay: SRB colorimetric assay of cell growth and viability, HeLa; details: 48 hours exposure; for CC50: read-out: LC50 HELA
IGROV-1 = assay: SRB colorimetric assay of cell growth and viability, IGROV-1; details: 48 hours exposure
SK-BR-3 = assay: SRB colorimetric assay of cell growth and viability, SK-BR-3; details: 48 hours exposure

Compound | GI50 (K-562) [µM] | TGI K-562 (K-562) [Molar] | CC50 (K-562) [µM] | GI50 (DU-145) [µM] | LC50 (concentration causing 50% net cell kill) (DU-145) [µM] | TGI DU-145 (DU-145) [Molar] | GI50 (HeLa-APL) [µM] | TGI HELA-APL (HeLa-APL) [Molar] | CC50 (HeLa-APL) [µM] | GI50 (IGROV-ET) [µM] | TGI IGROV-ET (IGROV-ET) [Molar] | CC50 (IGROV-ET) [µM] | GI50 (LoVo) [µM] | TGI LOVO (LoVo) [Molar] | CC50 (LoVo) [µM] | GI50 (PANC-1) [µM] | TGI PANC-1 (PANC-1) [Molar] | CC50 (PANC-1) [µM] | TGI LN-caP (LNCaP) [Molar] | GI50 (LNCaP) [µM] | also measured
C/C=C1\NC(=O)[C@H](Cc2ccccc2)NC(=O)[C@@H](C(C)C)NC(=O)[C@@H]([C@@H](C)CC)NC(=O)[C@H](NC(=O)[C@H](NC(=O)[C@H](CCCN)NC(=O)[C@H]2CCCN2C(=O)[C@H](NC(=O)[C@H](CC(C)C)NC(=O)[C@@H](NC(=O)[C@H](NC(=O)CCCC(C)C)C(C)C)[C@@H](C)O)C(C)C)[C@@H](C)CC)[C@@H](C)OC(=O)[C@H](C(C)C)NC1=O [Compound 45, [Leu^11]-KF] ({Hexanoyl(5-Me)}-[dV]TL[dV][dP][Orn][d(aIle)][d(aThr)][d(aIle)][dV]F[Dhb]V; ester 8-C) | 1.49 | 3.10E−06 | ≥ 6.4 | 0.731 | 3.54 | 1.61E−06 | 0.912 | 1.94E−06 | 4.13 | 0.421 | 1.30E−06 | 3.69 | 0.113 | 2.32E−07 | 0.476 | 2.32 | 6.70E−06 | 6.7 | 2.35E−06 | 1.02 | CC50 (LNCaP): 5.44 µM; TGI HT-29 (HT-29): 1.17E−06 Molar; GI50 (HT-29): 0.316 µM; CC50 (HT-29): 3.66 µM; GI50 (SK-MEL-28): 1.03 µM; TGI MEL-28 (SK-MEL-28): 2.05E−06 Molar; CC50 (SK-MEL-28): 4.11 µM; TGI A-549 (A-549): 1.90E−06 Molar; GI50 (A-549): 0.925 µM; CC50 (A-549): 3.93 µM; GI50 (HeLa): 0.938 µM; TGI HELA (HeLa): 2.16E−06 Molar; CC50 (HeLa): 4.98 µM; GI50 (IGROV-1): 0.332 µM; LC50 (concentration causing 50% net cell killing) (IGROV-1): 4.02 µM; TGI IGROV (IGROV-1): 1.23E−06 Molar; GI50 (SK-BR-3): 0.163 µM; LC50 (SK-BR-3): 1.68 µM; TGI SK-BR-3 (SK-BR-3): 4.10E−07 Molar
C/C=C1\NC(=O)[C@H](Cc2ccccc2)NC(=O)[C@@H](C(C)C)NC(=O)[C@@H]([C@@H](C)CC)NC(=O)[C@H](NC(=O)[C@H](NC(=O)[C@H](CCCN)NC(=O)[C@H]2CCCN2C(=O)[C@H](NC(=O)[C@H](Cc2ccccc2)NC(=O)[C@@H](NC(=O)[C@H](NC(=O)CCCC(C)C)C(C)C)[C@@H](C)O)C(C)C)[C@@H](C)CC)[C@@H](C)OC(=O)[C@H](C(C)C)NC1=O [Compound 43, [Phe^11]-KF] ({Hexanoyl(5-Me)}-[dV]TF[dV][dP][Orn][d(aIle)][d(aThr)][d(aIle)][dV]F[Dhb]V; ester 8-C) | 1.23 | 2.18E−06 | 3.85 | 0.476 | 3.22 | 1.34E−06 | 0.793 | 1.77E−06 | 3.93 | 0.233 | 6.28E−07 | 2.53 | 0.105 | 2.22E−07 | 0.471 | 1.79 | 4.86E−06 | 6.55 | 1.97E−06 | 0.852 | CC50 (LNCaP): 4.55 µM; TGI HT-29 (HT-29): 2.73E−07 Molar; GI50 (HT-29): 0.141 µM; CC50 (HT-29): 0.531 µM; GI50 (SK-MEL-28): 0.78 µM; TGI MEL-28 (SK-MEL-28): 1.66E−06 Molar; CC50 (SK-MEL-28): 3.57 µM; TGI A-549 (A-549): 1.40E−06 Molar; GI50 (A-549): 0.521 µM; CC50 (A-549): 3.41 µM; GI50 (HeLa): 0.397 µM; TGI HELA (HeLa): 1.32E−06 Molar; CC50 (HeLa): 3.95 µM; GI50 (IGROV-1): 0.241 µM; LC50 (concentration causing 50% net cell killing) (IGROV-1): 3.68 µM; TGI IGROV (IGROV-1): 7.67E−07 Molar; GI50 (SK-BR-3): 0.119 µM; LC50 (SK-BR-3): 0.634 µM; TGI SK-BR-3 (SK-BR-3): 2.75E−07 Molar
C/C=C1\NC(=O)[C@H](Cc2ccccc2)NC(=O)[C@@H](C(C)C)NC(=O)[C@@H]([C@@H](C)CC)NC(=O)[C@H](NC(=O)[C@H](NC(=O)[C@H](CCCN)NC(=O)[C@H]2CCCN2C(=O)[C@H](NC(=O)CNC(=O)[C@@H](NC(=O)[C@H](NC(=O)CCCC(C)C)C(C)C)[C@@H](C)O)C(C)C)[C@@H](C)CC)[C@@H](C)OC(=O)[C@H](C(C)C)NC1=O [Compound 42, [Gly^11]-KF] ({Hexanoyl(5-Me)}-[dV]TG[dV][dP][Orn][d(aIle)][d(aThr)][d(aIle)][dV]F[Dhb]V; ester 8-C) | 1.82 | 4.37E−06 | 6.96 | 6.96 | 6.96 | 6.96E−06 | 6.96 | 6.96E−06 | 6.96 | 6.96 | 6.96E−06 | 6.96 | 3.87 | 6.96E−06 | 6.96 | 5.08 | 6.96E−06 | 6.96 | 6.96E−06 | 3.03 | CC50 (LNCaP): 6.96 µM; TGI HT-29 (HT-29): 6.96E−06 Molar; GI50 (HT-29): 6.96 µM; CC50 (HT-29): 6.96 µM; GI50 (SK-MEL-28): 6.96 µM; TGI MEL-28 (SK-MEL-28): 6.96E−06 Molar; CC50 (SK-MEL-28): 6.96 µM; TGI A-549 (A-549): 6.96E−06 Molar; GI50 (A-549): 6.96 µM; CC50 (A-549): 6.96 µM; GI50 (HeLa): 6.96 µM; TGI HELA (HeLa): 6.96E−06 Molar; CC50 (HeLa): 6.96 µM; GI50 (IGROV-1): 4.61 µM; LC50 (concentration causing 50% net cell killing) (IGROV-1): 6.96 µM; TGI IGROV (IGROV-1): 6.96E−06 Molar; GI50 (SK-BR-3): 6.96 µM; LC50 (SK-BR-3): 6.96 µM; TGI SK-BR-3 (SK-BR-3): 6.96E−06 Molar
